# Assay results published in patent US10787450B2 (BRISTOL-MYERS SQUIBB COMPANY, priority 2016, dated 2020).
# Molecular target: ROCK2 (Homo sapiens (Human), UniProt O75116)
# Assay: ROCK2 kinase inhibition assay (FITC peptide substrate, LABCHIP 3000 Reader)
# Assay type: biochemical
# Conditions: 5 μM ATP, 1.5 μM peptide substrate
# Procedure: The effectiveness of compounds of the present invention as ROCK inhibitors can be determined in a 30 μL assay containing 20 mM HEPES, pH 7.5, 20 mM MgCl2, 0.015% Brij-35, 4 mM DTT, 5 μM ATP and 1.5 μM peptide substrate (FITC-AHA-AKRRRLSSLRA-OH) (SEQ ID NO. 1). Compounds were dissolved in DMSO so that the final concentration of DMSO was <2%, and the reaction was initiated with Rho kinase variants. After incubation, the reaction was terminated by the addition of EDTA and the phosphorylated and non-phosphorylated peptides separated using a LABCHIP® 3000 Reader (Caliper Life Sciences). […] Compounds were tested in dose-response format, and the inhibition of kinase activity was calculated at each concentration of compound. The inhibition data were fit using a curve-fitting program to determine the IC50; i.e., the concentration of compound required to inhibit 50% of kinase activity.
# Representative examples were tested in the ROCK2 assay described above and found having ROCK2 inhibitory activity.
# ROCK2, sequence (O75116 whole entry, species assumed): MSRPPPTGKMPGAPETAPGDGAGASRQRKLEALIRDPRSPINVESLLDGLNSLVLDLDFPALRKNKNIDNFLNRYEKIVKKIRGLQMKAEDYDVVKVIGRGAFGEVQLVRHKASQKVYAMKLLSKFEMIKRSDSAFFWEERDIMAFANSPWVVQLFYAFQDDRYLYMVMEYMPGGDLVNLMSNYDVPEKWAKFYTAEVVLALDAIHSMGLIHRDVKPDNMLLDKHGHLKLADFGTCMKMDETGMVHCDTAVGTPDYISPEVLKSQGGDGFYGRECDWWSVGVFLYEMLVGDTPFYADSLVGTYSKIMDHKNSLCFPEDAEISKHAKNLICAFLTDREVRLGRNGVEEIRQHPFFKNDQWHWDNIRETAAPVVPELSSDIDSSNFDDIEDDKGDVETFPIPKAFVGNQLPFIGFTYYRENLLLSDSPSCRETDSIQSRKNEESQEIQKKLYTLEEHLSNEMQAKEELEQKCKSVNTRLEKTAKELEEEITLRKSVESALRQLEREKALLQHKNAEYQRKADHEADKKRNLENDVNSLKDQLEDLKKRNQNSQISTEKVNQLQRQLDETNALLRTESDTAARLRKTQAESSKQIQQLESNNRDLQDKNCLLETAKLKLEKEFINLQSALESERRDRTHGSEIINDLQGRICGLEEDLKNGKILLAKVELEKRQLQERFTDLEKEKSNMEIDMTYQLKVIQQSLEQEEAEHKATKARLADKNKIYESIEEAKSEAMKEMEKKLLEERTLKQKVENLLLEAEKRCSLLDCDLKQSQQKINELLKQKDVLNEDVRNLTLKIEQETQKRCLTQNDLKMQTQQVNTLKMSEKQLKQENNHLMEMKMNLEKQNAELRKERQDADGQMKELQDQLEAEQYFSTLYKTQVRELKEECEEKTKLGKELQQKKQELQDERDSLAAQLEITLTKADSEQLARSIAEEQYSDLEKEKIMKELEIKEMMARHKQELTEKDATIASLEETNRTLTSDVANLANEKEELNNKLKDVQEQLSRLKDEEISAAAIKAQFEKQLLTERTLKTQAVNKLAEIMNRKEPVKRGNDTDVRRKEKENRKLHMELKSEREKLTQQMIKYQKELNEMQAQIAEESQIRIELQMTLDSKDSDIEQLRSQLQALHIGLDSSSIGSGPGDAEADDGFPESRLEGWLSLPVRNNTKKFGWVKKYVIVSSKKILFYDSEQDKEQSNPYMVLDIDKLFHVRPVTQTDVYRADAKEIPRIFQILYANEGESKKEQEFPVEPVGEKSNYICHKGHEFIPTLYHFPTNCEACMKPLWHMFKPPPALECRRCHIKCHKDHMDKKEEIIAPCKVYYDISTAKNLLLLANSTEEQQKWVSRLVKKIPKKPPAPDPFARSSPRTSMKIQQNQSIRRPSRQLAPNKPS
row,IC50 [nM],SMILES
1,3 to 30,"COc1cccc(C(C)N2C(=O)N(c3ccc(-c4cn[nH]c4)cc3)CC23CC3)c1 (single isomer, unassigned) [Example 2, 6-(4-(1H-pyrazol-4-yl)phenyl)-4-(1-(3-methoxyphenyl)ethyl)-4,6-diazaspiro[2.4]heptan-5-one]"
2,30 to 250,"COc1cccc(C(C)N2C(=O)N(c3ccc(-c4cn[nH]c4)cc3)CC23CC3)c1 (single isomer, unassigned) [Example 3, 6-(4-(1H-pyrazol-4-yl)phenyl)-4-(1-(3-methoxyphenyl)ethyl)-4,6-diazaspiro[2.4]heptan-5-one]"
3,< 3,"COc1cccc(CN2C(=O)N(c3ccc(-c4cn[nH]c4)cc3)CC23CCN(CC(C)O)CC3)c1 (single isomer, unassigned) [Example 139, 3-(4-(1H-pyrazol-4-yl)phenyl)-8-(2-hydroxypropyl)-1-(3-methoxybenzyl)-1,3,8-triazaspiro[4.5]decan-2-one]"
4,< 3,"COc1cccc(CN2C(=O)N(c3ccc(-c4cn[nH]c4)cc3)CC23CCN(CC(C)O)CC3)c1 (single isomer, unassigned) [Example 140, 3-(4-(1H-pyrazol-4-yl)phenyl)-8-(2-hydroxypropyl)-1-(3-methoxybenzyl)-1,3,8-triazaspiro[4.5]decan-2-one]"
5,< 3,"COc1cccc(CN2C(=O)N(c3ccc(-c4cn[nH]c4)cc3)CC23CC3)c1 [Example 1, 6-(4-(1H-pyrazol-4-yl)phenyl)-4-(3-methoxybenzyl)-4,6-diazaspiro[2.4]heptan-5-one]"
6,3 to 30,"CCc1cc(N2CC3(CC3)N(Cc3cc(F)cc(OC)c3)C2=O)ccc1-c1cn[nH]c1 [Example 4, 6-(3-ethyl-4-(1H-pyrazol-4-yl)phenyl)-4-(3-fluoro-5-methoxybenzyl)-4,6-diazaspiro[2.4]heptan-5-one]"
7,< 3,"CCc1cc(N2CC3(CC3)N(Cc3cccc(OC)c3)C2=O)ccc1-c1cn[nH]c1 [Example 5, 6-(3-ethyl-4-(1H-pyrazol-4-yl)phenyl)-4-(3-methoxybenzyl)-4,6-diazaspiro[2.4]heptan-5-one]"
8,< 3,"COc1cc(CN2C(=O)N(c3ccc(-c4cn[nH]c4)cc3)CC23CC3)ccc1F [Example 6, 6-(4-(1H-pyrazol-4-yl)phenyl)-4-(4-fluoro-3-methoxybenzyl)-4,6-diazaspiro[2.4]heptan-5-one]"
9,3 to 30,"O=C1N(c2ccc(-c3cn[nH]c3)cc2)CC2(CC2)N1Cc1cccc(OCC2CC2)c1 [Example 7, 6-(4-(1H-pyrazol-4-yl)phenyl)-4-(3-(cycloproylmethoxy)benzyl)-4,6-diazaspiro[2.4]heptan-5-one]"
10,< 3,"COc1cc(F)cc(CN2C(=O)N(c3ccc(-c4cn[nH]c4)cc3)CC23CC3)c1 [Example 8, 6-(4-(1H-pyrazol-4-yl)phenyl)-4-(3-fluoro-5-methoxybenzyl)-4,6-diazaspiro[2.4]heptan-5-one]"
11,< 3,"COc1cccc(CN2C(=O)N(c3ccc(-c4cn[nH]c4)cc3)CC23CCOCC3)c1 [Example 9, 3-(4-(1H-pyrazol-4-yl)phenyl)-1-(3-methoxybenzyl)-8-oxa-1,3-diazaspiro[4.5]decan-2-one]"
12,< 3,"COc1cc(F)cc(CN2C(=O)N(c3ccc(-c4cn[nH]c4)cc3)CC23CCOCC3)c1 [Example 10, 3-(4-(1H-pyrazol-4-yl)phenyl)-1-(3-fluoro-5-methoxybenzyl)-8-oxa-1,3-diazaspiro[4.5]decan-2-one]"
13,3 to 30,"O=C1N(c2ccc(-c3cn[nH]c3)cc2)CC2(CCOCC2)N1Cc1cccc(OCC2CC2)c1 [Example 11, 3-(4-(1H-pyrazol-4-yl)phenyl)-1-(3-(cyclopropylmethoxy)benzyl)-8-oxa-1,3-diazaspiro[4.5]decan-2-one]"
14,30 to 250,"O=C1N(c2ccc(-c3cn[nH]c3)cc2)CC2(CCOCC2)N1Cc1ccccc1F [Example 12, 3-(4-(1H-pyrazol-4-yl)phenyl)-1-(2-fluorobenzyl)-8-oxa-1,3-diazaspiro[4.5]decan-2-one]"
15,3 to 30,"O=C1N(c2ccc(-c3cn[nH]c3)cc2)CC2(CCOCC2)N1Cc1cccc(F)c1 [Example 13, 3-(4-(1H-pyrazol-4-yl)phenyl)-1-(3-fluorobenzyl)-8-oxa-1,3-diazaspiro[4.5]decan-2-one]"
16,30 to 250,"N#Cc1cccc(CN2C(=O)N(c3ccc(-c4cn[nH]c4)cc3)CC23CCOCC3)c1 [Example 14, 3-((3-(4-(1H-pyrazol-4-yl)phenyl)-2-oxo-8-oxa-1,3-diazaspiro[4.5]decan-1-yl)methyl)benzonitrile]"
17,250 to 3000,O=C1N(c2ccc(-c3cn[nH]c3)cc2)CC2(CCOCC2)N1Cc1cccc(Cl)c1 [Example 15]
18,3 to 30,"O=C1N(c2ccc(-c3cn[nH]c3)cc2)CC2(CCOCC2)N1Cc1cccc(Cl)c1 [Example 16, 3-(4-(1H-pyrazol-4-yl)phenyl)-1-(3-chlorobenzyl)-8-oxa-1,3-diazaspiro[4.5]decan-2-one]"

row,IC50 [nM],SMILES
1,3 to 30,"O=C1N(c2ccc(-c3cn[nH]c3)cc2)CC2(CCOCC2)N1Cc1ccc(F)c(F)c1 [Example 17, 3-(4-(1H-pyrazol-4-yl)phenyl)-1-(3,4-difluorobenzyl)-8-oxa-1,3-diazaspiro[4.5]decan-2-one]"
2,30 to 250,"O=C1N(c2ccc(-c3cn[nH]c3)cc2)CC2(CCOCC2)N1Cc1cccc(C(F)(F)F)c1 [Example 18, 3-(4-(1H-pyrazol-4-yl)phenyl)-1-(3-(trifluoromethyl)benzyl)-8-oxa-1,3-diazaspiro[4.5]decan-2-one]"
3,30 to 250,"O=C1N(c2ccc(-c3cn[nH]c3)cc2)CC2(CCOCC2)N1Cc1ccc(Cl)c(Cl)c1 [Example 19, 3-(4-(1H-pyrazol-4-yl)phenyl)-1-(3,4-dichlorobenzyl)-8-oxa-1,3-diazaspiro[4.5]decan-2-one]"
4,30 to 250,"O=C1N(c2ccc(-c3cn[nH]c3)cc2)CC2(CCOCC2)N1Cc1cccc(OC(F)(F)F)c1 [Example 20, 3-(4-(1H-pyrazol-4-yl)phenyl)-1-(3-(trifluoromethoxy)benzyl)-8-oxa-1,3-diazaspiro[4.5]decan-2-one]"
5,30 to 250,"O=C1N(c2ccc(-c3cn[nH]c3)cc2)CC2(CCOCC2)N1Cc1ccc(F)cc1F [Example 22, 3-(4-(1H-pyrazol-4-yl)phenyl)-1-(2,4-difluorobenzyl)-8-oxa-1,3-diazaspiro[4.5]decan-2-one]"
6,250 to 3000,"O=C1N(c2ccc(-c3cn[nH]c3)cc2)CC2(CCOCC2)N1Cc1c(F)cccc1F [Example 23, 3-(4-(1H-pyrazolo-4-yl)phenyl)-1-(2,6-difluorobenzyl)-8-oxa-1,3-diazaspiro[4.5]decan-2-one]"
7,3 to 30,"O=C1N(c2ccc(-c3cn[nH]c3)cc2)CC2(CCOCC2)N1Cc1cc(F)cc(F)c1 [Example 24, 3-(4-(1H-pyrazol-4-yl)phenyl)-1-(3,5-difluorobenzyl)-8-oxa-1,3-diazaspiro[4.5]decan-2-one]"
8,< 3,"Cc1c(F)cccc1CN1C(=O)N(c2ccc(-c3cn[nH]c3)cc2)CC12CCOCC2 [Example 25, 3-(4-(1H-pyrazol-4-yl)phenyl)-1-(3-fluoro-2-methylbenzyl)-8-oxa-1,3-diazaspiro[4.5]decan-2-one]"
9,30 to 250,"Cc1cc(F)ccc1CN1C(=O)N(c2ccc(-c3cn[nH]c3)cc2)CC12CCOCC2 [Example 26, 3-(4-(1H-pyrazol-4-yl)phenyl)-1-(4-fluoro-2-methylbenzyl)-8-oxa-1,3-diazaspiro[4.5]decan-2-one]"
10,30 to 250,"Cc1ccc(F)cc1CN1C(=O)N(c2ccc(-c3cn[nH]c3)cc2)CC12CCOCC2 [Example 27, 3-(4-(1H-pyrazol-4-yl)phenyl)-1-(5-fluoro-2-methylbenzyl)-8-oxa-1,3-diazaspiro[4.5]decan-2-one]"
11,30 to 250,"COc1cc(F)ccc1CN1C(=O)N(c2ccc(-c3cn[nH]c3)cc2)CC12CCOCC2 [Example 28, 3-(4-(1H-pyrazol-4-yl)phenyl)-1-(4-fluoro-2-methoxybenzyl)-8-oxa-1,3-diazaspiro[4.5]decan-2-one]"
12,30 to 250,"COc1cccc(CN2C(=O)N(c3ccc(-c4cn[nH]c4)cc3)CC23CCOCC3)c1F [Example 29, 3-(4-(1H-pyrazol-4-yl)phenyl)-1-(2-fluoro-3-methoxybenzyl)-8-oxa-1,3-diazaspiro[4.5]decan-2-one]"
13,30 to 250,"O=C1N(c2ccc(-c3cn[nH]c3)cc2)CC2(CCOCC2)N1CC1CCCCC1 [Example 30, 3-(4-(1H-pyrazol-4-yl)phenyl)-1-(cyclohexylmethyl)-8-oxa-1,3-diazaspiro[4.5]decan-2-one]"
14,30 to 250,"CNC(=O)c1cccc(CN2C(=O)N(c3ccc(-c4cn[nH]c4)cc3)CC23CCOCC3)c1 [Example 31, 3-((3-(4-(1H-pyrazol-4-yl)phenyl)-2-oxo-8-oxa-1,3-diazaspiro[4.5]decan-1-yl)methyl)-N-methylbenzamide]"
15,30 to 250,"NC(=O)c1cccc(CN2C(=O)N(c3ccc(-c4cn[nH]c4)cc3)CC23CCOCC3)c1 [Example 32, 3-((3-(4-(1H-pyrazol-4-yl)phenyl)-2-oxo-8-oxa-1,3-diazaspiro[4.5]decan-1-yl)methyl)benzamide]"
16,< 3,"O=C(NC1CCC1)c1cccc(CN2C(=O)N(c3ccc(-c4cn[nH]c4)cc3)CC23CCOCC3)c1 [Example 33, 3-((3-(4-(1H-pyrazol-4-yl)phenyl)-2-oxo-8-oxa-1,3-diazaspiro[4.5]decan-1-yl)methyl)-N-cyclobutylbenzamide]"
17,3 to 30,"CC(C)NC(=O)c1cccc(CN2C(=O)N(c3ccc(-c4cn[nH]c4)cc3)CC23CCOCC3)c1 [Example 34, 3-((3-(4-(1H-pyrazol-4-yl)phenyl)-2-oxo-8-oxa-1,3-diazaspiro[4.5]decan-1-yl)methyl)-N-isopropylbenzamide]"
